# Measurements as given in patent US8057806B2 (priority 2000, dated 2011).
# How the values were obtained:
# wild-type WSN-UdM virus = assay type: cell-based, influenza A virus
# viral replication = settings: cited from earlier work
structure (smiles),measurement,setting,value
NC12CC3CC(CC(C3)C1)C2 [amantadine],effect on virus yield and size of plaques,wild-type WSN-UdM virus,markedly reduced
same,concentrations at which the drug selectively inhibits viral replication,viral replication,0.1 to 5 µM
same,concentrations of nonspecific action (increase in pH of endosomes),viral replication,> 50 μM
